Read-outs that look alike come from different tables or passages of the source.
Biological target: CFTR (Homo sapiens, UniProt P13569)
Assay: Membrane Potential Dye, Enteroid Assay B
Format: cell-based
In short: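 Activity given as % of a triple-combination reference (1 μM and 3 μM correctors, 300 nM acute potentiator). Enteroids were preincubated 18-24 h with compound; chloride efflux then measured 15 min by methyl oxonol fluorescence after forskolin/IBMX/Compound III stimulation in chloride-free buffer containing CaCCinh-A01 and Chicago Sky Blue.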

Chain of CFTR (P13569 with tags, fused parts or gaps DEL508-508): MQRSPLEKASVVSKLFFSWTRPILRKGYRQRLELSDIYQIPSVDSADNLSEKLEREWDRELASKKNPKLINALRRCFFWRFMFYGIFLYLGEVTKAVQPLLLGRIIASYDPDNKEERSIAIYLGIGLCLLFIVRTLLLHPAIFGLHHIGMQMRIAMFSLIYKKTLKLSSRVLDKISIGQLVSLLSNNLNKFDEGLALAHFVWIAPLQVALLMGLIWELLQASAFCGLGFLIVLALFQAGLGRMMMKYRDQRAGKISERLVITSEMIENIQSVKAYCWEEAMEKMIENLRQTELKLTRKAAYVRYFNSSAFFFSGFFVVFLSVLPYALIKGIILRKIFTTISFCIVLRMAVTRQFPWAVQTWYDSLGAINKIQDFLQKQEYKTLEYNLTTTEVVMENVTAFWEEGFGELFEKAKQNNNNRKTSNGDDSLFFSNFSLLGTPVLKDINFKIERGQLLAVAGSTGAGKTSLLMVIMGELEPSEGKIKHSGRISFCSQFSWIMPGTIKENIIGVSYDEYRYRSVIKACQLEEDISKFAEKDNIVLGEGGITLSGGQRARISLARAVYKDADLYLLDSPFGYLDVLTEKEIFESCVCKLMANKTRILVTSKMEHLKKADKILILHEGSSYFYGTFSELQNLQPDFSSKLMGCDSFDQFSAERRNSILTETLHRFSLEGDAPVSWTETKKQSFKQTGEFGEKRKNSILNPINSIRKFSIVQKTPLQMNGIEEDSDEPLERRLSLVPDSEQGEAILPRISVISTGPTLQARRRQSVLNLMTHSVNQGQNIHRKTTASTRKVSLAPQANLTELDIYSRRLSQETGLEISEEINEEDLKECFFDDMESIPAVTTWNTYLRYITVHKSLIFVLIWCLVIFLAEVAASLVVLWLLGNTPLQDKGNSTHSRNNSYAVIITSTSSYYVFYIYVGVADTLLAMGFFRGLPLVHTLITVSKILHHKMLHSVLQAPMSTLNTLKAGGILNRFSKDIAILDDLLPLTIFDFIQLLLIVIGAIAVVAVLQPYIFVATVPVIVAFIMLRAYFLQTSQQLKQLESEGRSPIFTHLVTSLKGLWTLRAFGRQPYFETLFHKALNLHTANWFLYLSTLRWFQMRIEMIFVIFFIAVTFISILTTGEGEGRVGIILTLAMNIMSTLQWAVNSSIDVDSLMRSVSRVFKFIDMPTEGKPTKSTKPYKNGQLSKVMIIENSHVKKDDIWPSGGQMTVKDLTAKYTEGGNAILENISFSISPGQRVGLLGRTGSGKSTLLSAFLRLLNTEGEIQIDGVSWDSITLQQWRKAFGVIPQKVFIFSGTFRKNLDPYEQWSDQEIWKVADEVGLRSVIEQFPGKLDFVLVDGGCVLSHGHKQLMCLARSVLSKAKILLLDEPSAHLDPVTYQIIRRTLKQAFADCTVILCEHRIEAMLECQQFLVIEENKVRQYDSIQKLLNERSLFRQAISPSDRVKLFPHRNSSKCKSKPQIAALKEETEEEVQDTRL

Structure (SMILES) | Ent. B Max Activity (%) (Table 9) | EC50 (Table 9, read-out: Ent. B EC50) [nM] | also measured
Cc1cccc(C)c1-c1cc2nc(n1)NS(=O)(=O)c1cccc(c1)C(=O)N(C1CC3(COC(=O)N3)C1)[C@H](CC(C)C)CO2 (stereo partly drawn) [Compound 256] | – | – | Ent. B Max Activity (%) (Table 10): ++ (++ is 30-60%); EC50 (Table 10, read-out: Ent. B EC50): < 1000 nM
COC(=O)N1CCC2(CC1)CC(N1C(=O)c3cccc(c3)S(=O)(=O)Nc3nc(cc(-c4c(C)cccc4C)n3)OC[C@H]1CC1(C(F)(F)F)CC1)C2 [Compound 261] | +++ (+++ is >60%) | < 1000 | –
COC(=O)N1CCC2(CC1)CC(N1C(=O)c3cccc(c3)S(=O)(=O)Nc3nc(cc(-c4c(C)cccc4C)n3)OC[C@H]1CC(C)(C)C)C2 [Compound 262] | +++ (+++ is >60%) | < 1000 | –
COC(=O)NCC1CC(N2C(=O)c3cccc(c3)S(=O)(=O)Nc3nc(cc(-c4c(C)cccc4C)n3)OC[C@H]2CC(C)C)C1 (stereo partly drawn) [Compound 263] | +++ (+++ is >60%) | < 1000 | –
Cc1cccc(C)c1-c1cc2nc(n1)NS(=O)(=O)c1cccc(c1)C(=O)N([C@H]1C[C@]3(C[C@H](NC(C)C)C3)C1)[C@H](CC1(C(F)(F)F)CC1)CO2 (stereo partly drawn) [Compound 265] | +++ (+++ is >60%) | < 1000 | –
Cc1cccc(C)c1-c1cc2nc(n1)NS(=O)(=O)c1cccc(c1)C(=O)N([C@H]1C[C@@]3(C[C@H](NC(C)C)C3)C1)[C@H](CC1(C(F)(F)F)CC1)CO2 (stereo partly drawn) [Compound 266] | +++ (+++ is >60%) | < 1000 | –
CN[C@H]1C[C@@]2(C1)C[C@H](N1C(=O)c3cccc(c3)S(=O)(=O)Nc3nc(cc(-c4c(C)cccc4C)n3)OC[C@H]1CC1(C(F)(F)F)CC1)C2 (stereo partly drawn) [Compound 267] | +++ (+++ is >60%) | < 1000 | –
COCCN[C@H]1C[C@]2(C1)C[C@H](N1C(=O)c3cccc(c3)S(=O)(=O)Nc3nc(cc(-c4c(C)cccc4C)n3)OC[C@H]1CC1(C(F)(F)F)CC1)C2 (stereo partly drawn) [Compound 270] | +++ (+++ is >60%) | < 1000 | –
Cc1cccc(C)c1-c1cc2nc(n1)NS(=O)(=O)c1cccc(c1)C(=O)N([C@H]1C[C@]3(C[C@H](N(C)C(=O)OC(C)C)C3)C1)[C@H](CC1(C(F)(F)F)CC1)CO2 (stereo partly drawn) [Compound 271] | +++ (+++ is >60%) | < 1000 | –
Cc1cccc(C)c1-c1cc2nc(n1)NS(=O)(=O)c1cccc(c1)C(=O)N(C1CC3(CCN(C4CCOCC4)CC3)C1)[C@H](CC(C)C)CO2 [Compound 275] | +++ (+++ is >60%) | < 1000 | –
CN[C@H]1CC2(C1)C[C@H](N1C(=O)c3cccc(c3)S(=O)(=O)Nc3nc(cc(-c4c(C)cccc4C)n3)OC[C@H]1CC(C)C)C2 (stereo partly drawn) [Compound 281] | +++ (+++ is >60%) | < 1000 | –
[H][C@]1(N2C(=O)c3cccc(c3)S(=O)(=O)Nc3nc(cc(-c4c(C)cccc4C)n3)OC[C@H]2CC(C)C)C[C@@]2(C[C@H](N(C)C(=O)OC(C)C)C2)C1 (stereo partly drawn) [Compound 284] | ++ (++ is 30-60%) | < 1000 | –
[H][C@]1(N2C(=O)c3cccc(c3)S(=O)(=O)Nc3nc(cc(-c4c(C)cccc4C)n3)OC[C@H]2CC(C)C)C[C@@]2(C[C@H](N(C)CCOC)C2)C1 (stereo partly drawn) [Compound 285] | +++ (+++ is >60%) | < 1000 | –
[H][C@]1(N2C(=O)c3cccc(c3)S(=O)(=O)Nc3nc(cc(-c4c(C)cccc4C)n3)OC[C@H]2CC(C)C)C[C@@]2(C[C@H](N(C)CCOC)C2)C1 (stereo partly drawn) [Compound 286] | +++ (+++ is >60%) | < 1000 | –
Cc1cccc(C)c1-c1cc2nc(n1)NS(=O)(=O)c1cccc(c1)C(=O)N(C1CC3(CCN(CCOCc4ccccc4)CC3)C1)[C@H](CC(C)C)CO2 [Compound 290] | +++ (+++ is >60%) | < 1000 | –
Cc1cccc(C)c1-c1cc2nc(n1)NS(=O)(=O)c1cc(n(C)n1)C(=O)N(C1CC3(CCN(C)CC3)C1)[C@H](CC(C)C)CO2 [Compound 293] | +++ (+++ is >60%) | 1000 to 3000 | –
[H][C@]1(N2C(=O)c3cccc(c3)S(=O)(=O)Nc3nc(cc(-c4c(C)cccc4C)n3)OC[C@H]2CC2(C(F)(F)F)CC2)C[C@@]2(C[C@H](N(C)C)C2)C1 (stereo partly drawn) [Compound 297] | – | – | Ent. B Max Activity (%): +++ (+++ is >60%); EC50 (read-out: Ent. B EC50): < 1000 nM

Now from value to molecule, other results behind:

Ent. B Max Activity (%) (Table 9) | EC50 (Table 9, read-out: Ent. B EC50) [nM] | Structure (SMILES) | also measured
+++ (+++ is >60%) | < 1000 | COCC(C)N1CCC2(CC1)CC(N1C(=O)c3cccc(c3)S(=O)(=O)Nc3nc(cc(-c4c(C)cccc4C)n3)OC[C@H]1CC(C)C)C2 (stereo partly drawn) [Compound 257] | –
+++ (+++ is >60%) | < 1000 | CCN1CCC2(CC1)CC(N1C(=O)c3cccc(c3)S(=O)(=O)Nc3nc(cc(-c4c(C)cccc4C)n3)OC[C@H]1CC(C)C)C2 [Compound 258] | –
+++ (+++ is >60%) | < 1000 | CN[C@H]1C[C@]2(C1)C[C@H](N1C(=O)c3cccc(c3)S(=O)(=O)Nc3nc(cc(-c4c(C)cccc4C)n3)OC[C@H]1CC1(C(F)(F)F)CC1)C2 (stereo partly drawn) [Compound 268] | –
+++ (+++ is >60%) | < 1000 | COCCN[C@H]1C[C@@]2(C1)C[C@H](N1C(=O)c3cccc(c3)S(=O)(=O)Nc3nc(cc(-c4c(C)cccc4C)n3)OC[C@H]1CC1(C(F)(F)F)CC1)C2 (stereo partly drawn) [Compound 269] | –
+++ (+++ is >60%) | < 1000 | Cc1cccc(C)c1-c1cc2nc(n1)NS(=O)(=O)c1cccc(c1)C(=O)N([C@H]1C[C@@]3(C[C@H](N(C)C(=O)OC(C)C)C3)C1)[C@H](CC1(C(F)(F)F)CC1)CO2 (stereo partly drawn) [Compound 272] | –
+++ (+++ is >60%) | < 1000 | COC(=O)N[C@H]1C[C@@]2(C1)C[C@H](N1C(=O)c3cccc(c3)S(=O)(=O)Nc3nc(cc(-c4c(C)cccc4C)n3)OC[C@H]1CC1(C(F)(F)F)CC1)C2 (stereo partly drawn) [Compound 273] | –
+++ (+++ is >60%) | < 1000 | COC(=O)N[C@H]1CC2(C1)C[C@H](N1C(=O)c3cccc(c3)S(=O)(=O)Nc3nc(cc(-c4c(C)cccc4C)n3)OC[C@H]1CC1(C(F)(F)F)CC1)C2 (stereo partly drawn) [Compound 274] | –
+++ (+++ is >60%) | < 1000 | Cc1cccc(C)c1-c1cc2nc(n1)NS(=O)(=O)c1cccc(c1)C(=O)N(C1CC3(CCN(C4CC(F)(F)C4)CC3)C1)[C@H](CC(C)C)CO2 [Compound 276] | –
+++ (+++ is >60%) | < 1000 | Cc1cccc(C)c1-c1cc2nc(n1)NS(=O)(=O)c1cccc(c1)C(=O)N(C1CC3(CCN(CCOC4CC4)CC3)C1)[C@H](CC(C)C)CO2 [Compound 278] | –
+++ (+++ is >60%) | < 1000 | Cc1cccc(C)c1-c1cc2nc(n1)NS(=O)(=O)c1cccc(c1)C(=O)N(C1CC3(CCN(CC(C)(C)C)CC3)C1)[C@H](CC(C)C)CO2 [Compound 279] | –
+++ (+++ is >60%) | < 1000 | Cc1cccc(C)c1-c1cc2nc(n1)NS(=O)(=O)c1cccc(c1)C(=O)N(C1CC3(CCN(C4CCC4)CC3)C1)[C@H](CC(C)C)CO2 [Compound 280] | –
++ (++ is 30-60%) | < 1000 | Cc1cccc(C)c1-c1cc2nc(n1)NS(=O)(=O)c1cccc(c1)C(=O)N([C@H]1CC3(C[C@H](N(C)C(=O)OC(C)C)C3)C1)[C@H](CC(C)C)CO2 (stereo partly drawn) [Compound 283] | –
++ (++ is 30-60%) | < 1000 | Cc1cccc(C)c1-c1cc2nc(n1)NS(=O)(=O)c1cccc(c1)C(=O)N(C1CC3(CCN(CCO)CC3)C1)[C@H](CC(C)C)CO2 [Compound 289] | –
